Source: ChEMBL document CHEMBL1135517, “N(6)-alkyl-2-alkynyl derivatives of adenosine as potent and selective agonists at the human adenosine A(3) receptor and a starting point for searching A(2B) ligands” (J Med Chem, 2002)

Legend:
Adenosine receptor A2a = Adenosine receptor A2a (Homo sapiens, UniProt P29274); test: Binding affinity against Human recombinant Adenosine A2A receptor stably transfected in CHO cells using [3H]NECA as radioligand; assay type: cell-based
Adenosine receptor A3 = target: T1, Adenosine receptor A3 (Homo sapiens, UniProt P0DMS8); test: Binding affinity against Human recombinant Adenosine A3 receptor stably transfected in CHO cells using [3H]NECA as radioligand; assay type: cell-based
T1 sequence (P0DMS8 whole entry): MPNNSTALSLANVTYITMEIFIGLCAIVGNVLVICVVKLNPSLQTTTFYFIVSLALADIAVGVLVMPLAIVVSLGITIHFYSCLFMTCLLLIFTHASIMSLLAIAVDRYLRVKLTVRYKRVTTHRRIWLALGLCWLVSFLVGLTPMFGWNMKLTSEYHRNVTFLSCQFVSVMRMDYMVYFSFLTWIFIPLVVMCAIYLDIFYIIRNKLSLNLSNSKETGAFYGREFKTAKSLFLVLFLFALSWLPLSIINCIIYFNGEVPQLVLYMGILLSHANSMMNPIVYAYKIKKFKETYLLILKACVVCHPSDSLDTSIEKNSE

Adenosine receptor A2b = target: T2, Adenosine receptor A2b (Homo sapiens, UniProt P29275); test: Receptor-stimulated activity in CHO cells stably transfected with Human recombinant Adenosine A2B receptor measuring adenylyl cyclase activity
T2 sequence (P29275 whole entry): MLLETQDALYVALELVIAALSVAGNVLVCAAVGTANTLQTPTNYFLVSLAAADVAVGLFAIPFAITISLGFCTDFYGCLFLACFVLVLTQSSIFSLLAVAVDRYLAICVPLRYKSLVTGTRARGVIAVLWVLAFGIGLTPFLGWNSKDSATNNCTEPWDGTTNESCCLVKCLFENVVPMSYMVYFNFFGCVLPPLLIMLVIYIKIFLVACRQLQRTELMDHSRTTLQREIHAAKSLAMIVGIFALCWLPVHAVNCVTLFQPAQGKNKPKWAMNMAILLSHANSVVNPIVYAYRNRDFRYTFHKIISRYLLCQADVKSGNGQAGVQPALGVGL

Adenosine receptor A1 = target: T3, Adenosine receptor A1 (Homo sapiens, UniProt P30542); test: Binding affinity against Human recombinant Adenosine A1 receptor stably transfected in CHO cells using [3H]CCPA as radioligand; assay type: cell-based
T3 sequence (P30542 whole entry): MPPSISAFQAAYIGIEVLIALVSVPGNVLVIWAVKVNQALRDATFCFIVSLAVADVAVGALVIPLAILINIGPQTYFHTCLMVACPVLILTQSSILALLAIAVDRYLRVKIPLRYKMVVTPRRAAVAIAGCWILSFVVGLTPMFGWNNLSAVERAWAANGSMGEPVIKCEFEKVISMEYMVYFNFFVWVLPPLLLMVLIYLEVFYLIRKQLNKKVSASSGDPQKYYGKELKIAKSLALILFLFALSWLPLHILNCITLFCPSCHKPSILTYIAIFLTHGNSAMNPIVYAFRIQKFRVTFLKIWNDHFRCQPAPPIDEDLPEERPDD

Chain of Adenosine receptor A2a (P29274 whole entry): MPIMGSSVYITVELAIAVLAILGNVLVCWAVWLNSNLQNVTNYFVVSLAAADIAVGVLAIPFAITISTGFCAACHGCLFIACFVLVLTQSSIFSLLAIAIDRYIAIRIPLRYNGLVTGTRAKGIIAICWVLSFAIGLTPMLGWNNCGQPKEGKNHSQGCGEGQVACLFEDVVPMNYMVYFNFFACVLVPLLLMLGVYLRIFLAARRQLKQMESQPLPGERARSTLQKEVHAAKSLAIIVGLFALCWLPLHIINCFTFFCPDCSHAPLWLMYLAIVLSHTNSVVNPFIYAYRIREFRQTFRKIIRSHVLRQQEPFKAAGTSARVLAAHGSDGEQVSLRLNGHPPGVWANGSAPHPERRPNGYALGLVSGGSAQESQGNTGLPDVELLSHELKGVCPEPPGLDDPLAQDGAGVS

Compound	Ki (Adenosine receptor A2a)	Ki (Adenosine receptor A3)	EC50 (Adenosine receptor A2b)	Ki (Adenosine receptor A1)
Nc1nc(C#C[C@@H](O)c2ccccc2)nc2c1ncn2[C@@H]1O[C@H](CO)[C@@H](O)[C@H]1O	1.8 nM	1.4 nM	920 nM	0.67 nM
CC(C)Nc1nc(C#C[C@H](O)c2ccccc2)nc2c1ncn2[C@@H]1O[C@H](CO)[C@@H](O)[C@H]1O	324 nM	4.9 nM	8900 nM	1.1 nM
CCNc1nc(C#C[C@@H](O)c2ccccc2)nc2c1ncn2[C@@H]1O[C@H](CO)[C@@H](O)[C@H]1O	64 nM	0.2 nM	730 nM	3.4 nM
CNc1nc(C#C[C@H](O)c2ccccc2)nc2c1ncn2[C@@H]1O[C@H](CO)[C@@H](O)[C@H]1O	1560 nM	1.2 nM	100000 nM	7.1 nM
CC(C)Nc1nc(C#CC(O)c2ccccc2)nc2c1ncn2[C@@H]1O[C@H](CO)[C@@H](O)[C@H]1O (some centres not stated)	96 nM	2.3 nM	6100 nM	1.5 nM
CCNc1nc(C#CC(O)c2ccccc2)nc2c1ncn2[C@@H]1O[C@H](CO)[C@@H](O)[C@H]1O (some centres not stated)	94 nM	0.97 nM	1700 nM	2.7 nM
CCNC(=O)[C@H]1O[C@@H](n2cnc3c(N)nc(C#C[C@H](O)c4ccccc4)nc32)[C@H](O)[C@@H]1O	39 nM	5.5 nM	2400 nM	1.9 nM
CNc1nc(C#CC(O)c2ccccc2)nc2c1ncn2[C@@H]1O[C@H](CO)[C@@H](O)[C@H]1O (some centres not stated)	273 nM	0.76 nM	2700 nM	8.4 nM
CCCCC#Cc1nc(NC(C)C)c2ncn([C@@H]3O[C@H](CO)[C@@H](O)[C@H]3O)c2n1	196 nM	9.7 nM	100000 nM	43 nM
Nc1nc(C#Cc2ccccc2)nc2c1ncn2[C@@H]1O[C@H](CO)[C@@H](O)[C@H]1O	363 nM	16 nM	> 100000 nM	391 nM
CCNc1nc(C#Cc2ccccc2)nc2c1ncn2C1O[C@H](CO)[C@@H](O)[C@H]1O (some centres not stated)	4450 nM	4.9 nM	> 100000 nM	1180 nM
CNc1nc(C#C[C@@H](O)c2ccccc2)nc2c1ncn2[C@@H]1O[C@H](CO)[C@@H](O)[C@H]1O	163 nM	0.53 nM	2600 nM	9.6 nM
CCNc1nc(C#C[C@H](O)c2ccccc2)nc2c1ncn2[C@@H]1O[C@H](CO)[C@@H](O)[C@H]1O	1180 nM	1.4 nM	9100 nM	2.2 nM
CCCCC#Cc1nc(NC)c2ncn([C@@H]3O[C@H](CO)[C@@H](O)[C@H]3O)c2n1	1230 nM	1.1 nM	100000 nM	327 nM
CCCCC#Cc1nc(N)c2ncn([C@@H]3O[C@H](CO)[C@@H](O)[C@H]3O)c2n1		4.7 nM	100000 nM	
CCNC(=O)[C@H]1O[C@@H](n2cnc3c(N)nc(C#CC(O)c4ccccc4)nc32)[C@H](O)[C@@H]1O (mixture of isomers)	3.1 nM	0.42 nM	1100 nM	2.7 nM
CCNC(=O)[C@H]1O[C@@H](n2cnc3c(N)nc(C#C[C@@H](O)c4ccccc4)nc32)[C@H](O)[C@@H]1O	2 nM	0.75 nM	220 nM	2.1 nM
CCNC(=O)[C@H]1O[C@@H](n2cnc3c(N)nc(C#Cc4ccccc4)nc32)[C@H](O)[C@@H]1O	620 nM	6.2 nM	> 100000 nM	560 nM
CC(C)(C)OC(=O)C1CCCN1C[C@@H](O)[C@H](Cc1ccccc1)NC(=O)[C@H](CC(N)=O)NC(=O)OCc1ccccc1 (some centres not stated)		2.4 nM	6100 nM	60 nM
CC(C)Nc1nc(C#C[C@@H](O)c2ccccc2)nc2c1ncn2[C@@H]1O[C@H](CO)[C@@H](O)[C@H]1O	43 nM	1.5 nM	960 nM	1.7 nM
CC(C)Nc1nc(C#Cc2ccccc2)nc2c1ncn2[C@@H]1O[C@H](CO)[C@@H](O)[C@H]1O	1100 nM	17 nM	> 100000 nM	429 nM
CNc1nc(C#Cc2ccccc2)nc2c1ncn2[C@@H]1O[C@H](CO)[C@@H](O)[C@H]1O	8530 nM	3.4 nM	100000 nM	1690 nM
Nc1nc(C#C[C@H](O)c2ccccc2)nc2c1ncn2[C@@H]1O[C@H](CO)[C@@H](O)[C@H]1O	29 nM	5 nM	6200 nM	0.44 nM
CCCCC#Cc1nc(NCC)c2ncn([C@@H]3O[C@H](CO)[C@@H](O)[C@H]3O)c2n1	267 nM	2.3 nM	100000 nM	138 nM
Nc1nc(C#CC(O)c2ccccc2)nc2c1ncn2[C@@H]1O[C@H](CO)[C@@H](O)[C@H]1O (some centres not stated)	7 nM	3.3 nM	2400 nM	0.67 nM
